Measured values: ChEMBL document CHEMBL1201862, “PubChem BioAssay data set” (2004)
Activity calls are given as the source filed them.

Assays:
[1] = target: T1, Sphingosine 1-phosphate receptor 4 (Homo sapiens, UniProt O95977); experiment: Late-stage fluorescence dose response cell-based assay to identify agonists of the Sphingosine 1-Phosphate Receptor 4 (S1P4): purchased compounds EC50. [Related pubchem assays (depositor defined):AID1509, AID1523, AID1563, AID1686, AID1701, AID1801]; format: functional
T1 sequence (O95977 whole entry): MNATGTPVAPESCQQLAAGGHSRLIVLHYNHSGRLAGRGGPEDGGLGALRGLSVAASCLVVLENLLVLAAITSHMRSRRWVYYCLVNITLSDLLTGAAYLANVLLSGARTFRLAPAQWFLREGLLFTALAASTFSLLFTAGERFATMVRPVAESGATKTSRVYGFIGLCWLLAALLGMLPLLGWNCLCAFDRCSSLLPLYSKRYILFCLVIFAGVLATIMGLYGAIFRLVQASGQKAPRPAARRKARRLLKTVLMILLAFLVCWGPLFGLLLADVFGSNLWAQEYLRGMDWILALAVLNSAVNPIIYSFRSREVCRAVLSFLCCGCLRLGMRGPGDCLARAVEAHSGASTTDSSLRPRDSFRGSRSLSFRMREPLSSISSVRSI

[2] = Intein inhibitors as potential Tuberculosis drugs, a cytotoxicity screen. [Related pubchem assays (depositor defined):AID2221, AID2223, AID434968, AID435010, AID449749, AID449750, AID489010]; format: functional
BJ [3] = experiment: BJ-TERT-LT-ST fibroblast viability loss – cell-based, RAS-independent, luminescence, dose response (AID 1935); format: functional; conditions: Homo sapiens;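 further: BJ fibroblasts immortalized with TERT plus LT and ST oncogenes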
[4] = DRD fibroblast viability loss – cell-based, non-viral oncogenic, luminescence, dose response (AID 1934); format: functional; conditions: Homo sapiens
[5] = microbe, parasite or virus in culture; format: functional; conditions: Mycobacterium tuberculosis
Paired box protein Pax-8 = Paired box protein Pax-8 (Homo sapiens, UniProt Q06710); experiment: PAX8 transcriptional activity inhibition in RMG-I – RMG-I cells, luciferase, cherry-pick, dose response (AID 687027); format: functional, cell-based;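 further: luciferase reporter driven by Pax8 target thyroperoxidase promoter measured by SteadyGlo luminescence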
Sequence of Paired box protein Pax-8 (Q06710 whole entry): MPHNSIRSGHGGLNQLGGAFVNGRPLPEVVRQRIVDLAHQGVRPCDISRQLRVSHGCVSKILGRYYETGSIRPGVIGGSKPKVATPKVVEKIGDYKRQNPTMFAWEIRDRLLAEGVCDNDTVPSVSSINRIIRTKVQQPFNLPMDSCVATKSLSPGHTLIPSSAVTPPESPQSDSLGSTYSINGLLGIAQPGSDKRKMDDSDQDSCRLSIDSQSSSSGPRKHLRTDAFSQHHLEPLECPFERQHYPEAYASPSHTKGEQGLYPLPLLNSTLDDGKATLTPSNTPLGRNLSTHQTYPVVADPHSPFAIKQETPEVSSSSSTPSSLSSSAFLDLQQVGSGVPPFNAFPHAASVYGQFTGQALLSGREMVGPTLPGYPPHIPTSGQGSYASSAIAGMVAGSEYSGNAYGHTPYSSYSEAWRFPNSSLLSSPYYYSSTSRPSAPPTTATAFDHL

[6] = target: T2, Heat shock factor protein 1 (Mus musculus, UniProt P38532); experiment: decrease of HSF1-responsive luciferase luminescence – cell-based, NIH3T3, dose retest, confirmation (AID 2382); format: functional;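 further: NIH3T3 fibroblasts with HSF1-driven luciferase reporter stressed by proteasome inhibitor MG132; luminescence from HSF1-driven luciferase expression after 8 hours of MG132 stress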
T2 sequence (P38532 whole entry): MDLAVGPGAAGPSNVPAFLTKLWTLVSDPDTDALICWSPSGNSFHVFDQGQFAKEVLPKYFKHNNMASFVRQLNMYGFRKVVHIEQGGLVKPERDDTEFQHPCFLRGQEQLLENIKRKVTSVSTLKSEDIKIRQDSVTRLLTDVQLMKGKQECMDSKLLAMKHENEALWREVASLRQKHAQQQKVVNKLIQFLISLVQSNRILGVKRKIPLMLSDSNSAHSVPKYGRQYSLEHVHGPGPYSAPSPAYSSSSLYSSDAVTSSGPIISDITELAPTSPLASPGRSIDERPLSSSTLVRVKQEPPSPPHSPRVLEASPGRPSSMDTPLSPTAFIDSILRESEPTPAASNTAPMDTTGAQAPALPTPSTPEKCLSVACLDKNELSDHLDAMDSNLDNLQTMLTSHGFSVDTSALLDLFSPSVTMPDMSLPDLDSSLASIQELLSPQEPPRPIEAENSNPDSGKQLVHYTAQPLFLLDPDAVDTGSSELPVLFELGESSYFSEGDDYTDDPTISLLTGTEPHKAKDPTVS

BJ [7] = experiment: BJ-TERT fibroblast viability loss – cell-based, RAS-independent, luminescence, dose response (AID 1933); format: functional; conditions: Homo sapiens
[8] = HEK-293T cell viability reduction – luminescence, B-cell screen hits, cytotoxicity control for BCR NF-kB inhibitor project, dose response (AID 489021); format: functional, cell-based;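 further: HEK-293T cells carrying an NF-kB luciferase reporter; cells exposed to compound for about 14 hours before viability readout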
[9] = general cell-killing toxicity readout – plate reader, dry powder samples, cytotoxicity control for PAX8 inhibitor project, dose response (AID 743021); format: functional, cell-based
Protein RecA = target: T3, Protein RecA (Mycobacterium tuberculosis, UniProt P9WHJ3); experiment: Fluorescence Cell-Free Homogeneous Dose Retest to Identify Inhibitors of RecA-Intein Splicing Activity. [Related pubchem assays (depositor defined):AID2097, AID2223, AID489010, AID492950]; format: functional
T3 sequence (P9WHJ3 whole entry): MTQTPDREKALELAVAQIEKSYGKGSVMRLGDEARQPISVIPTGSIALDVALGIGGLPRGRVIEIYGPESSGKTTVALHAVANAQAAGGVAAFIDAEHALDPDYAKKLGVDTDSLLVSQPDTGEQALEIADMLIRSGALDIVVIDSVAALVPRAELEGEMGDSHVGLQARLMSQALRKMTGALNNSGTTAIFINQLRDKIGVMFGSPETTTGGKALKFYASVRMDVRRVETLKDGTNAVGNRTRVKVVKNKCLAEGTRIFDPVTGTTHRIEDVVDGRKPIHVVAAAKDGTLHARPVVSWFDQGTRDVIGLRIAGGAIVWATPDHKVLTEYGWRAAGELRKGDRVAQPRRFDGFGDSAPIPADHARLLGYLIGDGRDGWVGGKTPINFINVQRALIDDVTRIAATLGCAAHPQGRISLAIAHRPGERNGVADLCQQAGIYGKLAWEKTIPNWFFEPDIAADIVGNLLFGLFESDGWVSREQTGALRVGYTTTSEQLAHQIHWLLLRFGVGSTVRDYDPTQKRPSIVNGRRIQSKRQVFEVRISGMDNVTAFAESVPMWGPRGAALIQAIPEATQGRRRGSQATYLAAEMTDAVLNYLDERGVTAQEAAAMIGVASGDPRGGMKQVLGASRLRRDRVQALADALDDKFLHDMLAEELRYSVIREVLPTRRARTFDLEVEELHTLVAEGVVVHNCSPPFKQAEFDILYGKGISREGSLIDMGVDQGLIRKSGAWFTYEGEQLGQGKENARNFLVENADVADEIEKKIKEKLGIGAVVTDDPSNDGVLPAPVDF

BJ [10] = experiment: growth inhibition of engineered Ras-driven BJ cells – cell-based, alamar blue fluorescence, cherrypicked samples, dose response (AID 2631); format: functional; conditions: Homo sapiens;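 further: confirmatory dose-response assay in RAS-dependent BJ fibroblasts engineered with TERT, LT and ST, with cytotoxicity read by fluorescence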
[11] = target: T4, Replicative DNA helicase DnaB (Mycobacterium tuberculosis, UniProt P9WMR3); experiment: DnaB intein splicing inhibitors, dose response, biochemical, cell-free fluorescence (AID 449749); format: functional
T4 sequence (P9WMR3 whole entry): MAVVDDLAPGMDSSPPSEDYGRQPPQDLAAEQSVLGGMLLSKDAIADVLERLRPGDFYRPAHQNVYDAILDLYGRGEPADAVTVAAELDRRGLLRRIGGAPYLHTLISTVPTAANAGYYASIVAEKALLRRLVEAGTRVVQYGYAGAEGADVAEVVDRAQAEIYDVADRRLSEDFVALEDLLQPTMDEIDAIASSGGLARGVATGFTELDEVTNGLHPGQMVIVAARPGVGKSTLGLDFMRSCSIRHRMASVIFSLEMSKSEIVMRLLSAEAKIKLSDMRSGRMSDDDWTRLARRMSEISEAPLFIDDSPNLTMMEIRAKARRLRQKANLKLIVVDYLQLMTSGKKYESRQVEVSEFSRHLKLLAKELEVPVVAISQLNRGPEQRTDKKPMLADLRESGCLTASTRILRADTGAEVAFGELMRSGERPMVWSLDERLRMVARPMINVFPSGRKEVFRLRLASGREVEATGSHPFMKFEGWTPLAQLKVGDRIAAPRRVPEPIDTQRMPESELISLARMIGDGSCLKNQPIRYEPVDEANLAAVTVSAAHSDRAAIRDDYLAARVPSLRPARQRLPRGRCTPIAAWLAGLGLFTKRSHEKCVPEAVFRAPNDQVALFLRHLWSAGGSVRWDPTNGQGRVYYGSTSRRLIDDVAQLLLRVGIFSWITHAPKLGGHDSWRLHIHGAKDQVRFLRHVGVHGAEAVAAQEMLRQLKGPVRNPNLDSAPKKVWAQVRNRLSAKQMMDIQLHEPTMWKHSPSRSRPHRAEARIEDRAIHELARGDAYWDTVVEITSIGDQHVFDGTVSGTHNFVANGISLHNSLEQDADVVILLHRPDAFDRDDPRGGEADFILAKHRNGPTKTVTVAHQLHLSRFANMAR

BJ [12] = experiment: cells; format: functional, cell-based; conditions: Homo sapiens
T-cell = experiment: loss of vesicle association with mouse CD8+ T cells – mouse 2C CD8+ T cells, flow cytometry, dose response (AID 485284); format: functional
[13] = target: T5, Orexin/Hypocretin receptor type 1 (Homo sapiens, UniProt O43613); experiment: Fluorescence-based cell-based high throughput dose response assay for antagonists of the orexin 1 receptor (OX1R; HCRTR1). [Related pubchem assays (depositor defined):AID434989, AID435008, AID463079, AID485270, AID492963, AID492964, AID492965, AID493232, AID504717, AID504718]; format: functional
T5 sequence (O43613 whole entry): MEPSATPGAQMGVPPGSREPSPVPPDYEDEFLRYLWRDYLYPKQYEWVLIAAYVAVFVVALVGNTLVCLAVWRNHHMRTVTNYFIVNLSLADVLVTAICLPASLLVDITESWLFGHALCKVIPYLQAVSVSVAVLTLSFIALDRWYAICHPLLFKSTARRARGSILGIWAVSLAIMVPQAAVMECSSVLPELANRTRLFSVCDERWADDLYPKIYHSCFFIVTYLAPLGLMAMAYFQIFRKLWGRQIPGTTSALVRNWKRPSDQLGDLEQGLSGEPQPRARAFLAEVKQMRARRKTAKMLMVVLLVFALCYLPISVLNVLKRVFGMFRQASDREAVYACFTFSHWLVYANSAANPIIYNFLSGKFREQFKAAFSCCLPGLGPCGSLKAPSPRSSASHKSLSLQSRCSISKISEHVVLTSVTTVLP

[14] = Luminescence Cell-Based Dose Confirmation HTS to Identify Inhibitors of Platelet Dense Granule Release. [Related pubchem assays: 1663 (Primary HTS), 1678 (Summary of Project)]; format: functional
CHO-K1 = experiment: Counterscreen for antagonists of the orexin 1 receptor (OX1R; HCRTR1): Homogeneous time resolved fluorescence (HTRF)-based cell-based dose response assay to identify antagonists of the parental CHO-K1 cell line. [Related pubchem assays (depositor defined):AID434989, AID435008, AID463079, AID485270, AID492963, AID492964, AID492965, AID493232, AID504699, AID504701]; format: functional; conditions: Cricetulus griseus;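 further: potency for inhibition of ATP-stimulated IP1 production as antagonists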
[15] = target: Sphingosine 1-phosphate receptor 1 (Homo sapiens, UniProt P21453); format: functional;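 further: Tango beta-arrestin reporter U2OS cells stimulated with S1P near its EC80; inhibitor potency meaning antagonism of receptor activation by the natural agonist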
Sequence of Sphingosine 1-phosphate receptor 1 (P21453 whole entry): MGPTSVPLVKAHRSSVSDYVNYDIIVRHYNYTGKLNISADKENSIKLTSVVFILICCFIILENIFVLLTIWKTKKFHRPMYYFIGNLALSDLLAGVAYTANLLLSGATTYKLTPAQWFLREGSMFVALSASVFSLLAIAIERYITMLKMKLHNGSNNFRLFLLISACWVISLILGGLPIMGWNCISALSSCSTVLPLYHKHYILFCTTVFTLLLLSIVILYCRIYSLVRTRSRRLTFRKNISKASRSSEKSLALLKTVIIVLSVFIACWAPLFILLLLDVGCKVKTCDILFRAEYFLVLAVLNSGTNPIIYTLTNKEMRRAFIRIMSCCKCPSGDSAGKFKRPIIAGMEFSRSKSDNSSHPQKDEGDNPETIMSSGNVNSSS

[16] = target: T6, Voltage-gated N-type calcium channel alpha-1B subunit/Amyloid beta A4 precursor protein-binding family A member 1 (Homo sapiens, UniProt Q00975+Q02410); format: protein assay
T6 sequence (Q00975 whole entry, the tested form may be a part): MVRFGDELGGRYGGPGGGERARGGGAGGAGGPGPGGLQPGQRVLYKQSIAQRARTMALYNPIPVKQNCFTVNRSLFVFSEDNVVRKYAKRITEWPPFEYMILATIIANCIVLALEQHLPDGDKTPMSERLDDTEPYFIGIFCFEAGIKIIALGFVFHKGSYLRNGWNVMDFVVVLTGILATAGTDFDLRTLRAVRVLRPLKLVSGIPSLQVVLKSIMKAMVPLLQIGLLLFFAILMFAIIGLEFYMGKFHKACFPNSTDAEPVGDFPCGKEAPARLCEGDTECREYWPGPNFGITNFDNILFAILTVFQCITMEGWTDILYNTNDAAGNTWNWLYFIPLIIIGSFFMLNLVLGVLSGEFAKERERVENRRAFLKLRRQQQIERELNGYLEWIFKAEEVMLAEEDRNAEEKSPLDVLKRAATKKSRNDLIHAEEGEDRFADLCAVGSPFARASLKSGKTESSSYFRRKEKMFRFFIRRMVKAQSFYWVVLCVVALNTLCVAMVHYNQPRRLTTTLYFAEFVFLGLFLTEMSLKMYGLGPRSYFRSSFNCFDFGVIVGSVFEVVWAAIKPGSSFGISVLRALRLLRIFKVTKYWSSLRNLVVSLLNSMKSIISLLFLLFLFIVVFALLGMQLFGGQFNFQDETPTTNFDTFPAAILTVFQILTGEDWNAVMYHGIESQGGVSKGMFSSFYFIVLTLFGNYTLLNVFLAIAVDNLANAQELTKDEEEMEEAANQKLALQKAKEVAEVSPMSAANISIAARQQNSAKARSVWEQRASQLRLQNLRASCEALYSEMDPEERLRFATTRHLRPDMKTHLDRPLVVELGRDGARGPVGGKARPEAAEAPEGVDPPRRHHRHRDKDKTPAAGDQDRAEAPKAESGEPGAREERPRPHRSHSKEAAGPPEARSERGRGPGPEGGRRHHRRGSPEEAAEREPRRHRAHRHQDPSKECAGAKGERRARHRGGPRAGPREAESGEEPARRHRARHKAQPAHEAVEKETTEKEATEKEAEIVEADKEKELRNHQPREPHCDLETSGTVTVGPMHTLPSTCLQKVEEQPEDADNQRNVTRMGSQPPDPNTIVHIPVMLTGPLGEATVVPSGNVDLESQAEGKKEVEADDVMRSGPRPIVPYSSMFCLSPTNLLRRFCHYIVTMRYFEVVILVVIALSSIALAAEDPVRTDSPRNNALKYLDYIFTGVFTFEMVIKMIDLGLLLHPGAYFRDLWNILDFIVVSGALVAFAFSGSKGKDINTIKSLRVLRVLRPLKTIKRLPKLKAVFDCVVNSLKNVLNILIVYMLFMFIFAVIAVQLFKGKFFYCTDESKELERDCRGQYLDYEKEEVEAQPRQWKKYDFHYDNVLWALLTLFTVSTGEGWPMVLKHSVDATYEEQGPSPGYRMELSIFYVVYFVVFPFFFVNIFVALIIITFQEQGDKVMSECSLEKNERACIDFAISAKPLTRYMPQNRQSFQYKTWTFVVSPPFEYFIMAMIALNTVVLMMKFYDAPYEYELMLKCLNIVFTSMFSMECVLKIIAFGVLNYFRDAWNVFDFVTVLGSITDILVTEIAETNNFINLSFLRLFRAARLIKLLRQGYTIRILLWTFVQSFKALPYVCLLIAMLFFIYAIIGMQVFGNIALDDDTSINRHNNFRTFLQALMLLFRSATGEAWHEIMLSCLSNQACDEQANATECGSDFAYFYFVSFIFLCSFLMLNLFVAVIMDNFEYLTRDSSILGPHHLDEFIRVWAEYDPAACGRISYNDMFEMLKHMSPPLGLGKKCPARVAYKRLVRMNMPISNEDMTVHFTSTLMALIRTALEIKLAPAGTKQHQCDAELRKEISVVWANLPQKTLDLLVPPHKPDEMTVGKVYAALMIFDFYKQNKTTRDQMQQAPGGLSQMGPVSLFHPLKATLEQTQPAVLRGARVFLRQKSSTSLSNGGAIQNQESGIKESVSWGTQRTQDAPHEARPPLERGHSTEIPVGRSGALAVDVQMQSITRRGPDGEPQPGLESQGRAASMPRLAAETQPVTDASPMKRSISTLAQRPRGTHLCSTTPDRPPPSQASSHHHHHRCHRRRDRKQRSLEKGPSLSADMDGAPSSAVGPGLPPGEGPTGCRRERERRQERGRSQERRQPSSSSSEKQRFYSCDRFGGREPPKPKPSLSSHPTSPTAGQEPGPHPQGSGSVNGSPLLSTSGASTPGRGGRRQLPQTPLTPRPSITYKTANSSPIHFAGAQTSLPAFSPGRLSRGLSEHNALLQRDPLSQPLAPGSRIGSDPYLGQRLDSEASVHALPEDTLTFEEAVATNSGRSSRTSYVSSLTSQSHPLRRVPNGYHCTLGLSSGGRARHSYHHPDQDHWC
T6 sequence (Q02410 whole entry, the tested form may be a part): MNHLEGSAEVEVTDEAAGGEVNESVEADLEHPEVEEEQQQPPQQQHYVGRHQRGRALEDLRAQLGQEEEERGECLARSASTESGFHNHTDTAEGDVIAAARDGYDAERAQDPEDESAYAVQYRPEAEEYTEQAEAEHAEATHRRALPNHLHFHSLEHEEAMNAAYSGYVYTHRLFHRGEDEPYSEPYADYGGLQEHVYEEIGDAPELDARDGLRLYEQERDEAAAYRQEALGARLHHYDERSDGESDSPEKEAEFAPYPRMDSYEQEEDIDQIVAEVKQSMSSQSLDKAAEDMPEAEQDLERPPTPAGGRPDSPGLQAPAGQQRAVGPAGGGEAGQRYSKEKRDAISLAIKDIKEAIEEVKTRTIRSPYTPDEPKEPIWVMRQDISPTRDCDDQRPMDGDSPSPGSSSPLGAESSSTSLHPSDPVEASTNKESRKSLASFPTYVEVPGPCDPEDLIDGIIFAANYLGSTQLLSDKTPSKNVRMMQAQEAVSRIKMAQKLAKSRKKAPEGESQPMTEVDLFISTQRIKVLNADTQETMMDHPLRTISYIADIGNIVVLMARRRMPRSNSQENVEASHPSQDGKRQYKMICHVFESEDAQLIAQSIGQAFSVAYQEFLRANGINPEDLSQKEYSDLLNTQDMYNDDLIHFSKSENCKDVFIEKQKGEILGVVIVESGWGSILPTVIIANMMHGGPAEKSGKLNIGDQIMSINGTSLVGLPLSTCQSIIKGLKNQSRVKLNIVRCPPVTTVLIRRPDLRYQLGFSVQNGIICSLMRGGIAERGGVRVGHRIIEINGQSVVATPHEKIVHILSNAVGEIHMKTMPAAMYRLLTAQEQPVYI

[17] = Fluorescence-based cell-based high throughput dose response assay for inhibitors of the interaction of nucleotide-binding oligomerization domain containing 2 (NOD2) and the receptor-interacting serine-threonine kinase 2 (RIPK2).; format: functional; conditions: Homo sapiens
[18] = target: T1, Sphingosine 1-phosphate receptor 4; experiment: Fluorescence dose response cell-based high throughput screening assay for antagonists of the Sphingosine 1-Phosphate Receptor 4 (S1P4). [Related pubchem assays: 1524 (Confirmation in triplicates.), 1510 (Primary screen.)]; format: functional
[19] = target: Luciferin 4-monooxygenase (Photinus pyralis, UniProt P08659); experiment: inhibition of purified Photinus pyralis luciferase – biochemical, luminescence, dose response (AID 1891)
Sequence of Luciferin 4-monooxygenase (P08659 whole entry): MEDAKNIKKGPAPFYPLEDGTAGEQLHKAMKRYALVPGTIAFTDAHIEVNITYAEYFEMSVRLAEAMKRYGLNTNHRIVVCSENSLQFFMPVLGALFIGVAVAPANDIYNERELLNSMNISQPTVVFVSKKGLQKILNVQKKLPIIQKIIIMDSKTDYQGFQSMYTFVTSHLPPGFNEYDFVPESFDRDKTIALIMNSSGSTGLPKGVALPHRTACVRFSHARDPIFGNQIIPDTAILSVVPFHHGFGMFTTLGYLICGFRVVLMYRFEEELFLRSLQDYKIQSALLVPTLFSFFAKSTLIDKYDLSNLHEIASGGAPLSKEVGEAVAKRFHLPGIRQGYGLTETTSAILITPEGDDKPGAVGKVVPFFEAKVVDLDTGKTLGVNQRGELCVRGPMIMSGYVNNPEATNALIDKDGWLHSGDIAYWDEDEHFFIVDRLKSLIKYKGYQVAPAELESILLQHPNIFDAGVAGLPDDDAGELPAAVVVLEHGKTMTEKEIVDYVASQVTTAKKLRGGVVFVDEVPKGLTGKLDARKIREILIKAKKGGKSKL

[20] = Counterscreen for antagonists of the orexin 1 receptor (OX1R; HCRTR1): Fluorescence-based cell-based high throughput dose response assay to identify antagonists of the parental CHO cell line. [Related pubchem assays (depositor defined):AID434989, AID435008, AID463079, AID485270, AID492963, AID492964, AID492965, AID493232, AID504699, AID504701]; format: functional
[21] = target: T6, Voltage-gated N-type calcium channel alpha-1B subunit/Amyloid beta A4 precursor protein-binding family A member 1; format: protein assay; remark: listed apart in the source
[22] = target: Heat shock protein HSP 90-alpha (Homo sapiens, UniProt P07900); format: functional, organism-based
[23] = target: T5, Orexin/Hypocretin receptor type 1; experiment: Homogeneous Time Resolved Fluorescence (HTRF)-based cell-based high throughput dose response assay for antagonists of the orexin 1 receptor (OX1R; HCRTR1). [Related pubchem assays (depositor defined):AID434989, AID435008, AID463079, AID485270, AID492963, AID492964, AID492965, AID493232, AID504717, AID504718]; format: functional
Beta Lactamase = Beta Lactamase (Pseudomonas aeruginosa, UniProt Q932Y6); experiment: BLA reporter interference, concentration series – BLA reporter cells, FRET fluorescence, artefact control for NOD2-RIPK2 interaction inhibitor project, dose response (AID 651552); format: functional, cell-based
Sequence of Beta Lactamase (Q932Y6 whole entry): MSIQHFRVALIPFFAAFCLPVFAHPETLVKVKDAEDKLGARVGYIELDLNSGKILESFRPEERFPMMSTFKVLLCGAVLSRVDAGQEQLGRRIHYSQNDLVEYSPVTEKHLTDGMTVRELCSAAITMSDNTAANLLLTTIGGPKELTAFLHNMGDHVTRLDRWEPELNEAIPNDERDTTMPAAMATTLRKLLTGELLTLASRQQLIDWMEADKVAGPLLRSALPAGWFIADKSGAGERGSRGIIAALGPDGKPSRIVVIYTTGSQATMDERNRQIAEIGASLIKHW

Cc1nn(Cc2ccccc2)c(Cl)c1C(=O)OC(C)C(=O)NCc1ccccc1 (stereo not drawn)
EC50 [1]: > 50 µM (inactive)

C=CCOc1ccccc1CN(C(=O)CCl)c1ccc2c(c1)OCO2
CC50 [2]: 2.07 µM (active) | EC50 (BJ [3]): 17.3 µM (inconclusive) | EC50 [4]: 5.04 µM (active) | CC50 [5]: 1.68 µM (active) | AC50 (Paired box protein Pax-8): 5.46 µM (active) | EC50 [6]: 4.88 µM (active) | EC50 (BJ [7]): 0.7 µM (inconclusive) | IC50 [8]: 62.1 µM (inactive) | AC50 [9]: 9.67 µM (active) | EC50 (Protein RecA): 0.481 µM (active) | EC50 (BJ [10]): > 66.7 µM (inactive) | AC50 [11]: 2.37 µM (active) | EC50 (BJ [12]): 4.58 µM (active)

Cc1ccc(S(=O)(=O)N2CCC(NC(=O)c3ccccc3)CC2)cc1
EC50 (T-cell): 7.83 µM (active)

O=C1C=C(c2ccc(Cl)cc2)C(=O)N1Nc1ccccc1
IC50 [13]: 3.12 µM (active) | EC50 [14]: 21.5 µM (active) | IC50 (CHO-K1): 50.7 µM (inactive) | IC50 [15]: 13.6 µM (not active) | IC50 [16]: > 50 µM (inactive) | IC50 [17]: 1.03 µM (active) | IC50 [18]: 1.95 µM (active) | EC50 [19]: > 112 µM (not active) | IC50 [20]: 4.98 µM (active) | IC50 [21]: 21.1 µM (active) | AC50 [22]: 0.267 µM (active) | IC50 [23]: 3.73 µM (active) | IC50 (Beta Lactamase): 13 µM (inactive)
